According to the supplement of paper PMC4932681:

How the values were obtained:
BT-474 [1] = assay: relative IC50 (midpoint of fitted logistic curve, plateau may be below 50% inhibition; CellTiter-Glo viability); higher = less potent; conditions: 72 h
Procedure, shortened: (§1)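 CellTiter-Glo viability was the readout, taken on a PHERAstar and normalised to vehicle-only and positive controls. It was measured after breast cancer cell lines and their resistant derivatives spent 72 h at 37 °C in 384-well plates containing library drugs at five concentrations spanning a 10 000-fold range, with 1 μM of the selecting drug in the medium of resistant lines. From logistic dose–response fits in the Breeze pipeline came drug sensitivity score, relative IC50 (curve midpoint) and top-dose inhibition.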

ZR-75-1 Tam2 [2] = assay: as above; conditions: 4-OH-tamoxifen in medium 1 µM; 72 h
Procedure, shortened: as §1

MCF-7 Tam1 [3] = assay: as above; conditions: 4-OH-tamoxifen in medium 1 µM; 72 h
Procedure, shortened: as §1

ZR-75-1 Tam1 [4] = assay: as above; conditions: 4-OH-tamoxifen in medium 1 µM; 72 h
Procedure, shortened: as §1

ZR-75-1 [5] = assay: as above; conditions: 72 h
Procedure, shortened: as §1

T-47D Tam2 [6] = assay: as above; conditions: 4-OH-tamoxifen in medium 1 µM; 72 h
Procedure, shortened: as §1

BT-474 Tam1 [7] = assay: as above; conditions: 4-OH-tamoxifen in medium 1 µM; 72 h
Procedure, shortened: as §1

T-47D Tam1 [8] = assay: as above; conditions: 4-OH-tamoxifen in medium 1 µM; 72 h
Procedure, shortened: as §1

T-47D [9] = assay: as above; conditions: 72 h
Procedure, shortened: as §1

BT-474 [10] = assay: drug sensitivity score (DSS) (DSS (dimensionless)); higher = more sensitive; extreme values may be limits of the assay; conditions: 72 h
Procedure, shortened: as §1

ZR-75-1 Tam2 [11] = assay: as above; conditions: 4-OH-tamoxifen in medium 1 µM; 72 h
Procedure, shortened: as §1

MCF-7 Tam1 [12] = assay: as above; conditions: 4-OH-tamoxifen in medium 1 µM; 72 h
Procedure, shortened: as §1

ZR-75-1 Tam1 [13] = assay: as above; conditions: 4-OH-tamoxifen in medium 1 µM; 72 h
Procedure, shortened: as §1

ZR-75-1 [14] = assay: as above; conditions: 72 h
Procedure, shortened: as §1

MCF-7 [15] = assay: as above; conditions: 72 h
Procedure, shortened: as §1

BT-474 Tam2 [16] = assay: as above; conditions: 4-OH-tamoxifen in medium 1 µM; 72 h
Procedure, shortened: as §1

T-47D Tam2 [17] = assay: as above; conditions: 4-OH-tamoxifen in medium 1 µM; 72 h
Procedure, shortened: as §1

BT-474 Tam1 [18] = assay: as above; conditions: 4-OH-tamoxifen in medium 1 µM; 72 h
Procedure, shortened: as §1

T-47D Tam1 [19] = assay: as above; conditions: 4-OH-tamoxifen in medium 1 µM; 72 h
Procedure, shortened: as §1

T-47D [20] = assay: as above; conditions: 72 h
Procedure, shortened: as §1

MCF-7 [21] = assay: relative IC50 (midpoint of fitted logistic curve, plateau may be below 50% inhibition; CellTiter-Glo viability); higher = less potent; conditions: 72 h
Procedure, shortened: as §1

BT-474 Tam2 [22] = assay: as above; conditions: 4-OH-tamoxifen in medium 1 µM; 72 h
Procedure, shortened: as §1

relative IC50 (BT-474 [1]; 4-OH-tamoxifen in medium 0 µM)	relative IC50 (MCF-7 Tam1 [3])	relative IC50 (T-47D Tam2 [6])	relative IC50 (BT-474 Tam1 [7])	relative IC50 (T-47D Tam1 [8])	relative IC50 (T-47D [9]; 4-OH-tamoxifen in medium 0 µM)	relative IC50 (T-47D [9]; 4-OH-tamoxifen in medium 1 µM)	relative IC50 (BT-474 [1]; 4-OH-tamoxifen in medium 1 µM)	relative IC50 (MCF-7 [21]; 4-OH-tamoxifen in medium 0 µM)	relative IC50 (MCF-7 [21]; 4-OH-tamoxifen in medium 1 µM)	relative IC50 (BT-474 Tam2 [22])	Compound	relative IC50 (ZR-75-1 Tam2 [2])	relative IC50 (ZR-75-1 Tam1 [4])	relative IC50 (ZR-75-1 [5]; 4-OH-tamoxifen in medium 0 µM)	relative IC50 (ZR-75-1 [5]; 4-OH-tamoxifen in medium 1 µM)	drug sensitivity score (BT-474 [10]; 4-OH-tamoxifen in medium 0 µM)	drug sensitivity score (BT-474 [10]; 4-OH-tamoxifen in medium 1 µM)	drug sensitivity score (ZR-75-1 Tam2 [11])	drug sensitivity score (MCF-7 Tam1 [12])	drug sensitivity score (ZR-75-1 Tam1 [13])	drug sensitivity score (ZR-75-1 [14]; 4-OH-tamoxifen in medium 0 µM)	drug sensitivity score (ZR-75-1 [14]; 4-OH-tamoxifen in medium 1 µM)	drug sensitivity score (MCF-7 [15]; 4-OH-tamoxifen in medium 0 µM)	drug sensitivity score (MCF-7 [15]; 4-OH-tamoxifen in medium 1 µM)	drug sensitivity score (BT-474 Tam2 [16])	drug sensitivity score (T-47D Tam2 [17])	drug sensitivity score (BT-474 Tam1 [18])	drug sensitivity score (T-47D Tam1 [19])	drug sensitivity score (T-47D [20]; 4-OH-tamoxifen in medium 0 µM)	drug sensitivity score (T-47D [20]; 4-OH-tamoxifen in medium 1 µM)
> 1 µM	> 1 µM	> 1 µM	0.449 µM	> 1 µM	> 1 µM	> 1 µM	–	–	–	–	Oc1ccc2c(c1)CC[C@H](c1ccccc1)[C@@H]2c1ccc(OCCN2CCCC2)cc1 [Lasofoxifene]	> 1 µM	> 1 µM	> 1 µM	> 1 µM	0	0.881	0	0	0	0	0	1.49	0.854	0.434	0	1.01	0	0	0
> 10 µM	2.03 µM	4.18 µM	5.2 µM	0.346 µM	–	> 10 µM	> 10 µM	4.2 µM	2.52 µM	–	N#CCNC(=O)c1ccc(-c2ccnc(Nc3ccc(N4CCOCC4)cc3)n2)cc1 [Momelotinib (CYT-387)]	–	> 10 µM	> 10 µM	–	0	0	0	3.23	0	0	0.68	1.83	4.64	0.414	1.42	1.15	5.08	0.52	0
1.27 µM	1.79 µM	1.53 µM	1.59 µM	0.797 µM	2.22 µM	2.6 µM	–	3.66 µM	1.1 µM	0.619 µM	COC1=CC(c2cc3ccccc3[nH]2)=N/C1=C\c1[nH]c(C)cc1C [Obatoclax (GX15-070)]	1.42 µM	–	2.38 µM	1.71 µM	6.87	0.367	4.94	4.3	1.02	1.96	2.4	2	8.57	12.1	3.22	3.09	8.83	3.35	2.73
> 100 µM	> 100 µM	> 100 µM	> 100 µM	> 100 µM	> 100 µM	> 100 µM	> 100 µM	> 100 µM	> 100 µM	> 100 µM	S=P(N1CC1)(N1CC1)N1CC1 [Thio-TEPA]	> 100 µM	–	> 100 µM	> 100 µM	0	0	0	0	0.276	0	0	0	0	0	0	0	0	0	0
> 5 µM	> 5 µM	> 5 µM	> 5 µM	> 5 µM	> 5 µM	> 5 µM	> 5 µM	> 5 µM	–	> 5 µM	C[C@@H]1CCN(C(=O)CC#N)C[C@@H]1N(C)c1ncnc2[nH]ccc12 [Tofacitinib (Tasocitinib)]	–	> 5 µM	> 5 µM	> 5 µM	0	0	0.0132	0	0	0	0	0	0.208	0	0	0	0	0	0
> 10 µM	> 10 µM	> 10 µM	–	> 10 µM	> 10 µM	> 10 µM	> 10 µM	> 10 µM	> 10 µM	–	Clc1ccc(Nc2nnc(Cc3ccncc3)c3ccccc23)cc1 [Vatalanib]	> 10 µM	> 10 µM	> 10 µM	> 10 µM	0	0	0	0	0	0	0	0	0	0.0042	0	0	0	0	0

Compound	relative IC50 (BT-474 [1]; 4-OH-tamoxifen in medium 0 µM)	relative IC50 (MCF-7 Tam1 [3])	relative IC50 (T-47D Tam2 [6])	relative IC50 (BT-474 Tam1 [7])	relative IC50 (T-47D Tam1 [8])	relative IC50 (T-47D [9]; 4-OH-tamoxifen in medium 0 µM)	relative IC50 (T-47D [9]; 4-OH-tamoxifen in medium 1 µM)	relative IC50 (BT-474 [1]; 4-OH-tamoxifen in medium 1 µM)	relative IC50 (MCF-7 [21]; 4-OH-tamoxifen in medium 0 µM)	relative IC50 (MCF-7 [21]; 4-OH-tamoxifen in medium 1 µM)	relative IC50 (BT-474 Tam2 [22])	relative IC50 (ZR-75-1 Tam2 [2])	relative IC50 (ZR-75-1 Tam1 [4])	relative IC50 (ZR-75-1 [5]; 4-OH-tamoxifen in medium 0 µM)	relative IC50 (ZR-75-1 [5]; 4-OH-tamoxifen in medium 1 µM)	drug sensitivity score (BT-474 [10]; 4-OH-tamoxifen in medium 0 µM)	drug sensitivity score (BT-474 [10]; 4-OH-tamoxifen in medium 1 µM)	drug sensitivity score (ZR-75-1 Tam2 [11])	drug sensitivity score (MCF-7 Tam1 [12])	drug sensitivity score (ZR-75-1 Tam1 [13])	drug sensitivity score (ZR-75-1 [14]; 4-OH-tamoxifen in medium 0 µM)	drug sensitivity score (ZR-75-1 [14]; 4-OH-tamoxifen in medium 1 µM)	drug sensitivity score (MCF-7 [15]; 4-OH-tamoxifen in medium 0 µM)	drug sensitivity score (MCF-7 [15]; 4-OH-tamoxifen in medium 1 µM)	drug sensitivity score (BT-474 Tam2 [16])	drug sensitivity score (T-47D Tam2 [17])	drug sensitivity score (BT-474 Tam1 [18])	drug sensitivity score (T-47D Tam1 [19])	drug sensitivity score (T-47D [20]; 4-OH-tamoxifen in medium 0 µM)	drug sensitivity score (T-47D [20]; 4-OH-tamoxifen in medium 1 µM)
COCC1(CO)C(=O)C2CCN1CC2 (centres undefined) [Prima-1 Met]	> 10 µM	> 10 µM	> 10 µM	> 10 µM	> 10 µM	> 10 µM	> 10 µM	> 10 µM	–	> 10 µM	> 10 µM	–	> 10 µM	> 10 µM	> 10 µM	0	0	0.24	0	0	0	0	0.0674	0	0	0	0	0	0	0
CNC(=O)c1ccc(N2C(=S)N(c3ccc(C#N)c(C(F)(F)F)c3)C(=O)C23CCC3)cc1F [RD162]	> 10 µM	> 10 µM	> 10 µM	–	> 10 µM	> 10 µM	–	> 10 µM	> 10 µM	–	–	> 10 µM	> 10 µM	> 10 µM	> 10 µM	0	0	0	0	0	0	0	0	1.42	0.498	0	0.0464	0	0	0.215
